{"source": "patent US11866720B2", "about": "“Transgenic or non-transgenic plants with mutated protoporphyrinogen oxidase having increased tolerance to herbicides” (priority 2013, dated 2024)", "system": "transgenic soybean expressing mutated PPO", "type": "in vivo, Glycine max", "settings": "T1 soybean, field", "note": "Like-named read-outs stand apart in the source and are kept apart here. For injury (1-5 point scale) in this document: key: 1: no obvious damage (no phytotoxicity); 2: minor amount of leaf damage, plant will survive; 3: moderate amount of leaf damage, plant will survive; 4: severe amount of leaf damage, plant will survive; 5: no surviving plants - all plants dead/dying.", "data": [{"smiles": "CC(C)N(C)S(=O)(=O)NC(=O)c1cc(-n2c(=O)cc(C(F)(F)F)n(C)c2=O)c(F)cc1Cl", "note": "[Saflufenacil, saflufenacil]", "values": [{"measurement": "Injury rating (1-5 point scale)", "setting": "SDS-10633 LTM383-1 AmtuPPX2L_F420M, Saflufenacil (75 gai/ha), 3 days after treatment", "result": 3}, {"measurement": "Injury rating (1-5 point scale)", "setting": "SDS-10633 LTM383-1 AmtuPPX2L_F420M, Saflufenacil (150 gai/ha), 3 days after treatment", "result": 3}, {"measurement": "Injury rating (1-5 point scale)", "setting": "SDS-10635 LTM383-1 AmtuPPX2L_F420M, Saflufenacil (75 gai/ha), 3 days after treatment", "result": 3.5}, {"measurement": "Injury rating (1-5 point scale)", "setting": "SDS-10635 LTM383-1 AmtuPPX2L_F420M, Saflufenacil (150 gai/ha), 3 days after treatment", "result": 3.5}, {"measurement": "Injury rating (1-5 point scale)", "setting": "SDS-10642 LTM384-1 AmtuPPX2L_R128A_F420L, Saflufenacil (75 gai/ha), 3 days after treatment", "result": 2}, {"measurement": "Injury rating (1-5 point scale)", "setting": "SDS-10642 LTM384-1 AmtuPPX2L_R128A_F420L, Saflufenacil (150 gai/ha), 3 days after treatment", "result": 2}, {"measurement": "Injury rating (1-5 point scale)", "setting": "SDS-10645 LTM383-1 AmtuPPX2L_F420M, Saflufenacil (75 gai/ha), 3 days after treatment", "result": 4}, {"measurement": "Injury rating (1-5 point scale)", "setting": "SDS-10645 LTM383-1 AmtuPPX2L_F420M, Saflufenacil (150 gai/ha), 3 days after treatment", "result": 3}, {"measurement": "Injury rating (1-5 point scale)", "setting": "SDS-10646 LTM383-1 AmtuPPX2L_F420M, Saflufenacil (75 gai/ha), 3 days after treatment", "result": 2.5}, {"measurement": "Injury rating (1-5 point scale)", "setting": "SDS-10646 LTM383-1 AmtuPPX2L_F420M, Saflufenacil (150 gai/ha), 3 days after treatment", "result": 2.5}, {"measurement": "injury (1-5 point scale)", "setting": "SDS-10648 AmtuPPX2L R128A_F420I, Saflufenacil 75 g ai/ha, 3 days after treatment", "result": 2}, {"measurement": "injury (1-5 point scale)", "setting": "SDS-10648 AmtuPPX2L R128A_F420I, Saflufenacil 150 g ai/ha, 3 days after treatment", "result": 2}, {"measurement": "Injury rating (1-5 point scale)", "setting": "SDS-10648 LTM386-1 AmtuPPX2L_R128A_F420I, Saflufenacil (75 gai/ha), 3 days after treatment", "result": 3}, {"measurement": "Injury rating (1-5 point scale)", "setting": "SDS-10648 LTM386-1 AmtuPPX2L_R128A_F420I, Saflufenacil (150 gai/ha), 3 days after treatment", "result": 3}, {"measurement": "Injury rating (1-5 point scale)", "setting": "SDS-10656 LTM377-1 AmtuPPX2L_dG210, Saflufenacil (75 gai/ha), 3 days after treatment", "result": 3.5}, {"measurement": "Injury rating (1-5 point scale)", "setting": "SDS-10656 LTM377-1 AmtuPPX2L_dG210, Saflufenacil (150 gai/ha), 3 days after treatment", "result": 3.5}, {"measurement": "Injury rating (1-5 point scale)", "setting": "SDS-10658 LTM386-1 AmtuPPX2L_R128A_F420I, Saflufenacil (75 gai/ha), 3 days after treatment", "result": 3.5}, {"measurement": "Injury rating (1-5 point scale)", "setting": "SDS-10658 LTM386-1 AmtuPPX2L_R128A_F420I, Saflufenacil (150 gai/ha), 3 days after treatment", "result": 3.5}, {"measurement": "Injury rating (1-5 point scale)", "setting": "SDS-10761 LTM383-1 AmtuPPX2L_F420M, Saflufenacil (75 gai/ha), 3 days after treatment", "result": 3}, {"measurement": "Injury rating (1-5 point scale)", "setting": "SDS-10761 LTM383-1 AmtuPPX2L_F420M, Saflufenacil (150 gai/ha), 3 days after treatment", "result": 3}, {"measurement": "Injury rating (1-5 point scale)", "setting": "SDS-10776 LTM386-1 AmtuPPX2L_R128A_F420I, Saflufenacil (75 gai/ha), 3 days after treatment", "result": 2}, {"measurement": "Injury rating (1-5 point scale)", "setting": "SDS-10776 LTM386-1 AmtuPPX2L_R128A_F420I, Saflufenacil (150 gai/ha), 3 days after treatment", "result": 2.5}, {"measurement": "Injury rating (1-5 point scale)", "setting": "SDS-10787 LTM384-1 AmtuPPX2L_R128A_F420L, Saflufenacil (75 gai/ha), 3 days after treatment", "result": 3}, {"measurement": "Injury rating (1-5 point scale)", "setting": "SDS-10787 LTM384-1 AmtuPPX2L_R128A_F420L, Saflufenacil (150 gai/ha), 3 days after treatment", "result": 2.5}, {"measurement": "injury (1-5 point scale)", "setting": "SDS-10791 AmtuPPX2L R128A_F420I, Saflufenacil 75 g ai/ha, 3 days after treatment", "result": 2}, {"measurement": "injury (1-5 point scale)", "setting": "SDS-10791 AmtuPPX2L R128A_F420I, Saflufenacil 150 g ai/ha, 3 days after treatment", "result": 2}, {"measurement": "Injury rating (1-5 point scale)", "setting": "SDS-10791 LTM386-1 AmtuPPX2L_R128A_F420I, Saflufenacil (75 gai/ha), 3 days after treatment", "result": 2}, {"measurement": "Injury rating (1-5 point scale)", "setting": "SDS-10791 LTM386-1 AmtuPPX2L_R128A_F420I, Saflufenacil (150 gai/ha), 3 days after treatment", "result": 2}, {"measurement": "Injury rating (1-5 point scale)", "setting": "SDS-10985 LTM385-1 AmtuPPX2L_R128A_F420M, Saflufenacil (75 gai/ha), 3 days after treatment", "result": 2}, {"measurement": "Injury rating (1-5 point scale)", "setting": "SDS-10985 LTM385-1 AmtuPPX2L_R128A_F420M, Saflufenacil (150 gai/ha), 3 days after treatment", "result": 2}, {"measurement": "Injury rating (1-5 point scale)", "setting": "SDS-10990 LTM385-1 AmtuPPX2L_R128A_F420M, Saflufenacil (75 gai/ha), 3 days after treatment", "result": 2.5}, {"measurement": "Injury rating (1-5 point scale)", "setting": "SDS-10990 LTM385-1 AmtuPPX2L_R128A_F420M, Saflufenacil (150 gai/ha), 3 days after treatment", "result": 2.5}, {"measurement": "Injury rating (1-5 point scale)", "setting": "SDS-10998 LTM387-1 AmtuPPX2L_R128A_F420V, Saflufenacil (75 gai/ha), 3 days after treatment", "result": 2}, {"measurement": "Injury rating (1-5 point scale)", "setting": "SDS-10998 LTM387-1 AmtuPPX2L_R128A_F420V, Saflufenacil (150 gai/ha), 3 days after treatment", "result": 2}, {"measurement": "Injury rating (1-5 point scale)", "setting": "SDS-11011 LTM385-1 AmtuPPX2L_R128A_F420M, Saflufenacil (75 gai/ha), 3 days after treatment", "result": 2}, {"measurement": "Injury rating (1-5 point scale)", "setting": "SDS-11011 LTM385-1 AmtuPPX2L_R128A_F420M, Saflufenacil (150 gai/ha), 3 days after treatment", "result": 2}, {"measurement": "injury (1-5 point scale)", "setting": "SDS-11014 AmtuPPX2L R128A_F420I, Saflufenacil 75 g ai/ha, 3 days after treatment", "result": 2}, {"measurement": "injury (1-5 point scale)", "setting": "SDS-11014 AmtuPPX2L R128A_F420I, Saflufenacil 150 g ai/ha, 3 days after treatment", "result": 2}, {"measurement": "Injury rating (1-5 point scale)", "setting": "SDS-11014 LTM386-1 AmtuPPX2L_R128A_F420I, Saflufenacil (75 gai/ha), 3 days after treatment", "result": 2}, {"measurement": "Injury rating (1-5 point scale)", "setting": "SDS-11014 LTM386-1 AmtuPPX2L_R128A_F420I, Saflufenacil (150 gai/ha), 3 days after treatment", "result": 2}, {"measurement": "injury (1-5 point scale)", "setting": "SDS-11034 AmtuPPX2L L397D_F420V, Saflufenacil 75 g ai/ha, 3 days after treatment", "result": 2}, {"measurement": "injury (1-5 point scale)", "setting": "SDS-11034 AmtuPPX2L L397D_F420V, Saflufenacil 150 g ai/ha, 3 days after treatment", "result": 2}, {"measurement": "Injury rating (1-5 point scale)", "setting": "SDS-11034 LTM387-1 AmtuPPX2L_R128A_F420V, Saflufenacil (75 gai/ha), 3 days after treatment", "result": 3}, {"measurement": "Injury rating (1-5 point scale)", "setting": "SDS-11034 LTM387-1 AmtuPPX2L_R128A_F420V, Saflufenacil (150 gai/ha), 3 days after treatment", "result": 2}, {"measurement": "injury (1-5 point scale)", "setting": "SDS-11035 AmtuPPX2L R128A_F420V, Saflufenacil 75 g ai/ha, 3 days after treatment", "result": 2}, {"measurement": "injury (1-5 point scale)", "setting": "SDS-11035 AmtuPPX2L R128A_F420V, Saflufenacil 150 g ai/ha, 3 days after treatment", "result": 2}, {"measurement": "Injury rating (1-5 point scale)", "setting": "SDS-11035 LTM387-1 AmtuPPX2L_R128A_F420V, Saflufenacil (75 gai/ha), 3 days after treatment", "result": 2}, {"measurement": "Injury rating (1-5 point scale)", "setting": "SDS-11035 LTM387-1 AmtuPPX2L_R128A_F420V, Saflufenacil (150 gai/ha), 3 days after treatment", "result": 2}, {"measurement": "Injury rating (1-5 point scale)", "setting": "SDS-11036 LTM386-1 AmtuPPX2L_R128A_F420I, Saflufenacil (75 gai/ha), 3 days after treatment", "result": 2.5}, {"measurement": "Injury rating (1-5 point scale)", "setting": "SDS-11036 LTM386-1 AmtuPPX2L_R128A_F420I, Saflufenacil (150 gai/ha), 3 days after treatment", "result": 2.5}, {"measurement": "injury (1-5 point scale)", "setting": "SDS-11052 AmtuPPX2L R128A_F420M, Saflufenacil 75 g ai/ha, 3 days after treatment", "result": 2}, {"measurement": "injury (1-5 point scale)", "setting": "SDS-11052 AmtuPPX2L R128A_F420M, Saflufenacil 150 g ai/ha, 3 days after treatment", "result": 2}, {"measurement": "Injury rating (1-5 point scale)", "setting": "SDS-11052 LTM385-1 AmtuPPX2L_R128A_F420M, Saflufenacil (75 gai/ha), 3 days after treatment", "result": 3}, {"measurement": "Injury rating (1-5 point scale)", "setting": "SDS-11052 LTM385-1 AmtuPPX2L_R128A_F420M, Saflufenacil (150 gai/ha), 3 days after treatment", "result": 3}, {"measurement": "Injury rating (1-5 point scale)", "setting": "SDS-11105 LTM387-1 AmtuPPX2L_R128A_F420V, Saflufenacil (75 gai/ha), 3 days after treatment", "result": 2.5}, {"measurement": "Injury rating (1-5 point scale)", "setting": "SDS-11105 LTM387-1 AmtuPPX2L_R128A_F420V, Saflufenacil (150 gai/ha), 3 days after treatment", "result": 2.5}, {"measurement": "Injury rating (1-5 point scale)", "setting": "SDS-11110 LTM387-1 AmtuPPX2L_R128A_F420V, Saflufenacil (75 gai/ha), 3 days after treatment", "result": 2.5}, {"measurement": "Injury rating (1-5 point scale)", "setting": "SDS-11110 LTM387-1 AmtuPPX2L_R128A_F420V, Saflufenacil (150 gai/ha), 3 days after treatment", "result": 2.5}, {"measurement": "Injury rating (1-5 point scale)", "setting": "SDS-11111 LTM386-1 AmtuPPX2L_R128A_F420I, Saflufenacil (75 gai/ha), 3 days after treatment", "result": 2.5}, {"measurement": "Injury rating (1-5 point scale)", "setting": "SDS-11111 LTM386-1 AmtuPPX2L_R128A_F420I, Saflufenacil (150 gai/ha), 3 days after treatment", "result": 2.5}, {"measurement": "Injury rating (1-5 point scale)", "setting": "SDS-11118 LTM386-1 AmtuPPX2L_R128A_F420I, Saflufenacil (75 gai/ha), 3 days after treatment", "result": 2}, {"measurement": "Injury rating (1-5 point scale)", "setting": "SDS-11118 LTM386-1 AmtuPPX2L_R128A_F420I, Saflufenacil (150 gai/ha), 3 days after treatment", "result": 2}, {"measurement": "Injury rating (1-5 point scale)", "setting": "Wildtype Jake, Saflufenacil (75 gai/ha), 3 days after treatment (Table 11e)", "result": 5}, {"measurement": "Injury rating (1-5 point scale)", "setting": "Wildtype Jake, Saflufenacil (75 gai/ha), 3 days after treatment (Table 11d)", "result": 5}, {"measurement": "Injury rating (1-5 point scale)", "setting": "Wildtype Jake, Saflufenacil (150 gai/ha), 3 days after treatment (Table 11e)", "result": 5}, {"measurement": "Injury rating (1-5 point scale)", "setting": "Wildtype Jake, Saflufenacil (150 gai/ha), 3 days after treatment (Table 11d)", "result": 5}, {"measurement": "injury (1-5 point scale)", "setting": "wild type, Saflufenacil 75 g ai/ha, 3 days after treatment", "result": 5}, {"measurement": "injury (1-5 point scale)", "setting": "wild type, Saflufenacil 150 g ai/ha, 3 days after treatment", "result": 5}, {"measurement": "Injury rating (1-5 point scale)", "setting": "wild type, saflufenacil: treatment 1 150 g ai/ha, treatment 2 0, 7 DAT", "result": 5}, {"measurement": "Injury rating (1-5 point scale)", "setting": "wild type, saflufenacil: treatment 1 300 g ai/ha, treatment 2 300 g ai/ha, 14 DAT", "result": 5}]}]}
